This assay concerns human PC-3 prostate cancer cells. In words: in vitro assay of PC-3 cell invasion across Matrigel artificial membrane. The assay is classed as cell-based. The note with it: for X ± σ (X = mean number of invading cells, σ = standard deviation): PC-3 cells, HGF 40 ng/ml induced invasion, fixed total concentration 4 micrograms/ml, 72 hr culture, c+ 33 ± 10.7, c− 3 ± 1.7; for inhibition of PC-3 invasion, result in words: total dose 4 micrograms/ml, Kruskal-Wallis test. The text has this: In order to determine a possible molecular mechanism of mixtures of conjugated fatty acids and polyphenols according to the present invention, an accepted in vitro assay of cancer cell invasion was employed (Jiang et al., (1995) Regulation of the expression of E-cadherin on human cancer cells by gamma-linolenic acid (GLA). Cancer Res. 55:5043-5048).
Specifically, human PC-3 prostate cancer cells were used as an in vitro model to assess invasion across a Matrigel™ (Becton, Dickenson and Company, Franklin Lakes, N.J.) artificial membrane. Briefly, 6.5 mm diameter polycarbonate membranes (pore size 8 microns) […]. Following gel rehydration, 5×10^4 PC-3 human prostate cancer cells were added to each well. Hepatocyte growth factor/scatter factor (HGF) (Becton, Dickenson & Company, Franklin Lakes, N.J.) was used at 40 ng/ml to induce invasion. The upper chamber contained thested components (i.e. punicic acid, luteolin, caffeic acid or ellagic acid, or a combination of two, three or all four of the chemicals) at a fixed total concentration of 4 micrograms/ml.
Pure compounds (ellagic acid ([…], luteolin [L], caffeic acid [C] and punicic acid […]) were purchased commercially (E, C and L from Sigma Aldrich, Rehovot, Israel; P from Larodan Chemicals; Malmo; Sweden) and assayed as potential invasion inhibitors. The total dose was 4 micrograms/ml in each of 18 trials. The Kruskal-Wallis test was used to measure significance.

The structures appear in SMILES notation. Entries after “also recorded” stand apart in the source; their conditions may differ.

For the molecule `O=c1cc(-c2ccc(O)c(O)c2)oc2cc(O)cc(O)c12` [L, luteolin], the “X ± σ (X = mean number of invading cells, σ = standard deviation)” value is 9 ± 1.6 and the “inhibition of PC-3 invasion, result in words” value (“inhibition of PC-3 invasion” below) is “inhibited invasion significantly”.
Regarding `O=c1oc2c(O)c(O)cc3c(=O)oc4c(O)c(O)cc1c4c23` [E, ellagic acid], the “X ± σ (X = mean number of invading cells, σ = standard deviation)” value is given as 7.4 ± 2.3 and the “inhibition of PC-3 invasion” value is reported as “inhibited invasion significantly”.
In the case of `O=C(O)/C=C/c1ccc(O)c(O)c1` [C, caffeic acid], the “X ± σ (X = mean number of invading cells, σ = standard deviation)” value was 16.8 ± 3.4 and the “inhibition of PC-3 invasion” value was “inhibited invasion significantly; also recorded: much less than that of ellagic acid, punicic acid or luteolin”.
For `CCCC\C=C/C=C/C=C\CCCCCCCC(=O)O` [P, punicic acid] the same measures were 6.4 ± 1.1 and “inhibited invasion significantly”.

The record behind these values is patent US20080234361A1, “Pharmaceutical Compositions, Methods of Formulation Thereof and Methods of Use Thereof” (Rimonest Ltd., priority 2004, published 2008).
